Laboratory results taken from patent EP4737453A1, “NOVEL SELENOPHENE DERIVATIVES” (Aigen Sciences Inc., priority 2023, dated 2025).

Key:
[1] = target: T1, SOS1 and KRAS G12D interaction (Homo sapiens, UniProt Q07889); assay type: biochemical
T1 sequence (Q07889 564-1049 limits assumed): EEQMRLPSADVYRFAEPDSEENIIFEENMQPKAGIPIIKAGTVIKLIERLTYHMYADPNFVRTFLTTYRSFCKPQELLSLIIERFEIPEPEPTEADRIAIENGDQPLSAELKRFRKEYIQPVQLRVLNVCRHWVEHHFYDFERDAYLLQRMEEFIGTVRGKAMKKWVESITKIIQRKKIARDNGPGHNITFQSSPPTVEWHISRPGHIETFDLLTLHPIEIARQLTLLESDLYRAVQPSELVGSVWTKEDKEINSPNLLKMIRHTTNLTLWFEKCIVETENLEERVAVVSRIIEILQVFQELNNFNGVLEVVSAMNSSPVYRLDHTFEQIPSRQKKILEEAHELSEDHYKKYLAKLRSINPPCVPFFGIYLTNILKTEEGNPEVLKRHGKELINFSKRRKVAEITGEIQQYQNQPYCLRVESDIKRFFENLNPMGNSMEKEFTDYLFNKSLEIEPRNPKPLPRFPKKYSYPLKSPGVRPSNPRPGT

[2] = test system: MIA-PaCa-2; assay: Reactive oxygen species (ROS) production assay; assay type: cell-based; details: MIA-PaCa-2 cells, 10 µM, 24 hours; Figure 3
Method: Reactive oxygen species (ROS) production assay
In this experimental example, it was examined that the compound according to the present invention has the effect of increasing reactive oxygen in tumor cells.
MIA-PaCa-2 (Korea Cell Line Bank KCLB No. 21420), a cancer cell line harboring KRAS G12C mutation, was cultured in a cell culture medium containing RPMI1640 (Gibco, USA, catalog no. 11875-119), 10% fetal bovine serum (HyClone, USA, catalog no. SH30919.03), and 1 × diluted HyClone Antibiotic Antimycotic solution (HyClone, USA, catalog no. SV30079.01). 3 × 10^5 cells were seeded per well in a 6-well plate and cultured for 1 day at 37°C under 5% CO2 conditions. […] The cells were then collected in a microtube and analyzed for fluorescence using a BD LSRFortessa™ X-20 Cell Analyzer (BD Biosciences, USA) (excitation wavelength: 488 nm, emission wavelength: 535 nm). The fluorescence intensity due to the increase in reactive oxygen species was measured for 10,000 cells. Among the cells treated with 500 µM hydrogen peroxide, which was the positive control, the section in which the fluorescence intensity increased compared to the cells treated with the blank sample was found, and the average fluorescence intensity of the cells within this section was calculated. […]

[3] = target: T2, SOS1 and KRAS G12C interaction (Homo sapiens, UniProt Q07889); assay: Biochemical analysis of the inhibitory activity of SOS1 and KRAS G12C interaction (time-resolved fluorescence, 665/615 nm)
T2 sequence (Q07889 564-1049 limits assumed): T1 sequence (Q07889 564-1049 limits assumed)
Method: Biochemical analysis of the inhibitory activity of SOS1 and KRAS G12C interaction
In this experimental example, the efficacy of the compound according to the present invention in inhibiting the binding of KRAS and SOS1 was biochemically measured. A KRAS G12C working solution was prepared by adding biotin-linked KRAS G12C protein and europium-linked streptavidin to assay buffer solution (20 mM HEPES, 50 mM NaCl, 200 µg/mL […] (BSA), 0.01% Pluronic F127). Then, SOS1, in which a tag consisting of six histidine residues is covalently linked, and anti-histidine tag antibody D2 were added to the assay buffer to prepare an SOS1 working solution. After these two working solutions were added to the wells of a well plate, solutions diluted according to the experimental concentration of the test compound from the 10 mM dimethyl sulfoxide (DMSO) stock solution of the Example compound or positive control compound were added to the wells in 100 nL aliquots using an Echo automatic dispenser (Beckman Coulter, USA), or a DMSO blank was added to the wells.

[4] = test system: NCI-H358 cell line; assay: Combination effect with targeted anticancer agent, cell viability (CellTiter-Glo, combination index), H358; assay type: cell-based; details: H358 cells, 7 days, Example 1 compound 0.0001 to 0.1 µM, Fig. 1
Method: Test for evaluating the combination effect of targeted anticancer agent- Cell Viability
In this experimental example, we examined whether the compound according to the present invention has a synergistic effect on cancer cell death when used in combination with a target anticancer agent related to another RAS signal transduction pathway.
NCI-H358 cell line (ATCC catalog no. CRL-5807, USA) or EGFR exon 19 deletion cancer cell line PC-9 (Riken, Japan catalog no. RCB4455) were seeded in a well plate (500 cells per well for H358 and 50 cells per well for PC-9) in RPMI1640 (Gibco, USA catalog no. 22400-089) medium containing 10% fetal bovine serum (Excel Bio, USA catalog no. FSP500) and cultured for one day at 37°C under 5% CO2 conditions. […] Cell survival analysis was performed by luminescence analysis using the Promega CellTiter-Glo Luminescent Cell Viability Assay Kit (Promega, catalog number G7573), and luminescence was measured using a PerkinElmer 2014 EnVision plate reader. The inhibition rate was calculated from the measured relative luminescence value in the same manner as in Experimental Example 3, and the combination index (CI) between the compound of the present invention and the target anticancer agent was calculated using the following equation. […]

Compound: CNCc1ccccc1-c1c[se]c([C@@H](C)Nc2nc(C)nc3cc(OC)c(OC)cc23)c1 [Example 1, (R)-6,7-dimethoxyl-2-methyl-N-(1-(4-(2-((methylamino)methyl)phenyl)selenophen-2-yl)ethyl)quinazolin-4-amine]
- IC50 [1]: 8.4 nM
- ROS production compared to the blank sample [2]: significantly increased ROS production
- IC50 [3]: 18.6 nM
- synergistic effect inhibiting cell growth in combination with sotorasib ([4]; sotorasib 0.001 to 1 µM): strong synergistic effect
- synergistic effect inhibiting cell growth in combination with trametinib ([4]; trametinib 0.001 to 0.1 µM): strong synergistic effect
